In brackets after ≈: the same amount, converted by molar mass. Where a SMILES comes first, the peptide text is derived from it. Bridges are numbered along the chain shown (N, C = ends). [ ]: non-standard residue; d: D form. The star is where a group is joined. X43 = O=C(c1ccc(-c2ccc(Cl)cc2)cn1)*; X55 = O=C(c1ccc(-c2ccc(Cl)nc2)cc1)*; X37 = O=C(c1ccc(-c2ccc(Cl)cc2)s1)*; X45 = O=C(c1cc(C(F)(F)F)ccn1)*; X4 = O=C(c1cncc(C(F)(F)F)c1)*; X2 = O=C(c1cc(Cl)cc(Cl)n1)*; X36 = O=C(c1ncc(Br)cc1Br)*; Dab = NCC[C@H](N)C(=O)O; Abu = CC[C@H](N)C(=O)O; Dap = NC[C@H](N)C(=O)O
Legend:
Assay type in all cases: cell-based
[1] = tested on: Pseudomonas aeruginosa FADDI-PA01; settings: FADDI-
Experimental: (§1) MICs of the lipopeptides (trifluoroacetic acid salt, TFA) were determined by broth microdilution in cation-adjusted Mueller-Hinton broth (CAMHB) (Oxoid Australia, Thebarton, SA, Australia) according to the Clinical and Laboratory Standards Institute protocol (Clinical and Laboratory Standards Institute, Performance standards for antimicrobial susceptibility testing; twentyforth informational supplement M100-S24. Wayne, Pa., 2014). Polymyxin B sulphate was employed as the control. Antimicrobial activity of Compounds 1-104 against polymyxin-susceptible Gram-negative bacteria was examined. The following isolates were examined: Pseudomonas aeruginosa ATCC 27853, Pseudomonas aeruginosa FADDI-PA022*, Pseudomonas aeruginosa FADDI-PA01*, Pseudomonas aeruginosa FADDI-PA038*, Acinetobacter baumannii FADDI-AB034*, Acinetobacter baumannii ATCC 17978, Acinetobacter baumannii FADDI-AB030*, Klebsiella pneumoniae FADDI-KP032, Klebsiella pneumoniae FADDI-KP022*, Klebsiella pneumoniae Kp BM1*, Enterobacter cloacae FADDI-EC006, Enterobacter cloacae FADDI-EC001, and Enterobacter cloacae FADDI-EC003 (* Multi drug-resistant clinical isolates, § New Delhi Metallo-beta-lactamase-1 (NDM-1) producing). The results are illustrated in Tables 4 and 5.

[2] = tested on: Acinetobacter baumannii FADDI-AB034; settings: FADDI-AB034
Experimental: as §1

[3] = tested on: Acinetobacter baumannii ATCC 17978; settings: ATCC 17978
Experimental: as §1

[4] = tested on: Klebsiella pneumoniae Kp BM1; settings: Kp BM1
Experimental: as §1

[5] = tested on: Enterobacter cloacae FADDI-EC006; settings: FADDI-EC006
Experimental: as §1

[6] = tested on: Klebsiella pneumoniae FADDI-KP032; settings: FADDI-KP032
Experimental: as §1

[7] = tested on: Pseudomonas aeruginosa ATCC 27853; settings: ATCC 27853
Experimental: as §1

[8] = tested on: Pseudomonas aeruginosa FADDI-PA022; settings: FADDI-PA022
Experimental: as §1

[9] = tested on: Klebsiella pneumoniae FADDI-KP022; settings: FADDI-KP022
Experimental: as §1

[10] = tested on: Pseudomonas aeruginosa FADDI-PA038; settings: FADDI-PA038
Experimental: as §1

[11] = tested on: Enterobacter cloacae FADDI-EC003; settings: FADDI-EC003
Experimental: as §1

[12] = tested on: Enterobacter cloacae FADDI-EC001; settings: FADDI-EC001
Experimental: as §1

[13] = tested on: Acinetobacter baumannii FADDI-AB030; test: microbe, parasite or virus in culture; settings: FADDI-AB030
Experimental: as §1, with “Antimicrobial activity of Compounds 1-104 against polymyxin-susceptible Gram-negative bacteria was examined.” left out, “5. […]” for “5.”

Row | SMILES | Minimum inhibitory concentration [1] | Minimum inhibitory concentration [2] | Minimum inhibitory concentration [3] | Minimum inhibitory concentration [4] | Minimum inhibitory concentration [5] | Minimum inhibitory concentration [6] | Minimum inhibitory concentration [7] | Minimum inhibitory concentration [8] | Minimum inhibitory concentration [9] | Minimum inhibitory concentration [10] | Minimum inhibitory concentration [11] | Minimum inhibitory concentration [12] | Minimum inhibitory concentration [13]
1 | CC(C)C[C@H]1NC(=O)[C@H](CCN)NC(=O)[C@@H](NC(=O)[C@H](CN)NC(=O)[C@@H](NC(=O)[C@H](CCN)NC(=O)c2ccc(-c3ccc(Cl)cc3)cn2)[C@@H](C)O)CCNC(=O)[C@H]([C@@H](C)O)NC(=O)[C@H](CCN)NC(=O)[C@H](CCN)NC(=O)[C@H]([C@@H](C)O)NC1=O [Compound 15] (X43-[Dab]T[Dap][Dab][Dab][dL]T[Dab][Dab]T; lactam 4-C) | 2 µg/mL (≈ 1.64 µM) | 0.5 µg/mL (≈ 0.41 µM) | 0.5 µg/mL (≈ 0.41 µM) | 0.5 µg/mL (≈ 0.41 µM) | 0.25 µg/mL (≈ 0.205 µM) | 0.25 µg/mL (≈ 0.205 µM) | 1 µg/mL (≈ 0.82 µM) | 2 µg/mL (≈ 1.64 µM) | <0.125 µg/mL | 1 µg/mL (≈ 0.82 µM) | <0.125 µg/mL | 0.25 µg/mL (≈ 0.205 µM) | 1 µg/mL (≈ 0.82 µM)
2 | CC(C)C[C@H]1NC(=O)[C@H](CCN)NC(=O)[C@@H](NC(=O)[C@H](CN)NC(=O)[C@@H](NC(=O)[C@H](CCN)NC(=O)c2ccc(-c3ccc(Cl)nc3)cc2)[C@@H](C)O)CCNC(=O)[C@H]([C@@H](C)O)NC(=O)[C@H](CCN)NC(=O)[C@H](CCN)NC(=O)[C@H]([C@@H](C)O)NC1=O [Compound 16] (X55-[Dab]T[Dap][Dab][Dab][dL]T[Dab][Dab]T; lactam 4-C) | 0.5 µg/mL (≈ 0.41 µM) | 4 µg/mL (≈ 3.28 µM) | 2 µg/mL (≈ 1.64 µM) | 2 µg/mL (≈ 1.64 µM) | 0.5 µg/mL (≈ 0.41 µM) | 0.25 µg/mL (≈ 0.205 µM) | 0.5 µg/mL (≈ 0.41 µM) | 1 µg/mL (≈ 0.82 µM) | <0.125 µg/mL | 1 µg/mL (≈ 0.82 µM) | <0.125 µg/mL | 0.5 µg/mL (≈ 0.41 µM) | 8 µg/mL (≈ 6.56 µM)
3 | CC(C)C[C@H]1NC(=O)[C@H](CCN)NC(=O)[C@@H](NC(=O)[C@H](CN)NC(=O)[C@@H](NC(=O)[C@H](CCN)NC(=O)c2ccc(-c3ccc(Cl)cc3)s2)[C@@H](C)O)CCNC(=O)[C@H]([C@@H](C)O)NC(=O)[C@H](CCN)NC(=O)[C@H](CCN)NC(=O)[C@H]([C@@H](C)O)NC1=O [Compound 17] (X37-[Dab]T[Dap][Dab][Dab][dL]T[Dab][Dab]T; lactam 4-C) | 0.5 µg/mL (≈ 0.409 µM) | 1 µg/mL (≈ 0.817 µM) | 2 µg/mL (≈ 1.63 µM) | 0.5 µg/mL (≈ 0.409 µM) | 0.5 µg/mL (≈ 0.409 µM) | 0.5 µg/mL (≈ 0.409 µM) | 1 µg/mL (≈ 0.817 µM) | 1 µg/mL (≈ 0.817 µM) | <0.125 µg/mL | 1 µg/mL (≈ 0.817 µM) | 1 µg/mL (≈ 0.817 µM) | 0.25 µg/mL (≈ 0.204 µM) | 0.25 µg/mL (≈ 0.204 µM)
4 | CC[C@@H]1NC(=O)[C@@H](CC(C)C)NC(=O)[C@H](CCN)NC(=O)[C@@H](NC(=O)[C@H](CN)NC(=O)[C@@H](NC(=O)[C@H](CCN)NC(=O)c2cc(Cl)cc(Cl)n2)[C@@H](C)O)CCNC(=O)[C@H]([C@@H](C)O)NC(=O)[C@H](CCN)NC(=O)[C@H](CCN)NC1=O [Compound 18] (X2-[Dab]T[Dap][Dab][Dab][dL][Abu][Dab][Dab]T; lactam 4-C) | 0.25 µg/mL (≈ 0.215 µM) | 0.25 µg/mL (≈ 0.215 µM) | 1 µg/mL (≈ 0.861 µM) | 0.25 µg/mL (≈ 0.215 µM) | 0.25 µg/mL (≈ 0.215 µM) | 0.25 µg/mL (≈ 0.215 µM) | 0.25 µg/mL (≈ 0.215 µM) | 0.5 µg/mL (≈ 0.431 µM) | <0.125 µg/mL | 1 µg/mL (≈ 0.861 µM) | 0.5 µg/mL (≈ 0.431 µM) | <0.125 µg/mL | 0.5 µg/mL (≈ 0.431 µM)
5 | CC[C@@H]1NC(=O)[C@@H](CC(C)C)NC(=O)[C@H](CCN)NC(=O)[C@@H](NC(=O)[C@H](CN)NC(=O)[C@@H](NC(=O)[C@H](CCN)NC(=O)c2cncc(C(F)(F)F)c2)[C@@H](C)O)CCNC(=O)[C@H]([C@@H](C)O)NC(=O)[C@H](CCN)NC(=O)[C@H](CCN)NC1=O [Compound 20] (X4-[Dab]T[Dap][Dab][Dab][dL][Abu][Dab][Dab]T; lactam 4-C) | 0.5 µg/mL (≈ 0.431 µM) | 0.5 µg/mL (≈ 0.431 µM) | 2 µg/mL (≈ 1.72 µM) | 0.25 µg/mL (≈ 0.215 µM) | 0.5 µg/mL (≈ 0.431 µM) | 0.5 µg/mL (≈ 0.431 µM) | 0.5 µg/mL (≈ 0.431 µM) | 0.5 µg/mL (≈ 0.431 µM) | <0.125 µg/mL | 0.5 µg/mL (≈ 0.431 µM) | 4 µg/mL (≈ 3.45 µM) | 0.5 µg/mL (≈ 0.431 µM) | 0.5 µg/mL (≈ 0.431 µM)
6 | CC[C@@H]1NC(=O)[C@@H](CC(C)C)NC(=O)[C@H](CCN)NC(=O)[C@@H](NC(=O)[C@H](CN)NC(=O)[C@@H](NC(=O)[C@H](CCN)NC(=O)c2cc(C(F)(F)F)ccn2)[C@@H](C)O)CCNC(=O)[C@H]([C@@H](C)O)NC(=O)[C@H](CCN)NC(=O)[C@H](CCN)NC1=O [Compound 21] (X45-[Dab]T[Dap][Dab][Dab][dL][Abu][Dab][Dab]T; lactam 4-C) | 0.25 µg/mL (≈ 0.215 µM) | 0.25 µg/mL (≈ 0.215 µM) | 0.25 µg/mL (≈ 0.215 µM) | <0.125 µg/mL | 1 µg/mL (≈ 0.862 µM) | <0.125 µg/mL | 0.25 µg/mL (≈ 0.215 µM) | 0.25 µg/mL (≈ 0.215 µM) | <0.125 µg/mL | 0.5 µg/mL (≈ 0.431 µM) | 0.25 µg/mL (≈ 0.215 µM) | <0.125 µg/mL | 0.25 µg/mL (≈ 0.215 µM)
7 | CC[C@@H]1NC(=O)[C@@H](CC(C)C)NC(=O)[C@H](CCN)NC(=O)[C@@H](NC(=O)[C@H](CN)NC(=O)[C@@H](NC(=O)[C@H](CCN)NC(=O)c2ncc(Br)cc2Br)[C@@H](C)O)CCNC(=O)[C@H]([C@@H](C)O)NC(=O)[C@H](CCN)NC(=O)[C@H](CCN)NC1=O [Compound 22] (X36-[Dab]T[Dap][Dab][Dab][dL][Abu][Dab][Dab]T; lactam 4-C) | 0.25 µg/mL (≈ 0.2 µM) | 0.5 µg/mL (≈ 0.4 µM) | 0.5 µg/mL (≈ 0.4 µM) | <0.125 µg/mL | <0.125 µg/mL | <0.125 µg/mL | 0.5 µg/mL (≈ 0.4 µM) | 0.5 µg/mL (≈ 0.4 µM) | <0.125 µg/mL | 0.5 µg/mL (≈ 0.4 µM) | <0.125 µg/mL | <0.125 µg/mL | 0.5 µg/mL (≈ 0.4 µM)

Reference: patent publication US11225505B2, “Antimicrobial polymyxin derivative compounds” (MONASH UNIVERSITY, priority 2015, dated 2022)
